Tests used:
GSK3β = GSK3β (Homo sapiens, UniProt P49841); assay: GSK3β kinase assay (Caliper LabChip, fluoresceinated peptide substrate); type: biochemical; settings: first value of the cell; 250 pM enzyme, 20 uM ATP, 20 hours at room temperature; read-out: GSK3β/α (nM): GSK3β IC50
Summary of the method: (§1)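 Reactions run 20 hours at room temperature, stopped with EDTA. Phosphorylated and unphosphorylated fluoresceinated peptide separated electrophoretically on Caliper LabChip3000. Eleven compound concentrations tested; IC50 by non-linear regression.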

pTau = pTau assay (no method described); type: cell-based
GSK3α = GSK3α (Homo sapiens, UniProt P49840); assay: GSK3α kinase assay (Caliper LabChip, fluoresceinated peptide substrate); type: biochemical
Summary of the method: as §1

Sequence of GSK3β (P49841 whole entry, species assumed): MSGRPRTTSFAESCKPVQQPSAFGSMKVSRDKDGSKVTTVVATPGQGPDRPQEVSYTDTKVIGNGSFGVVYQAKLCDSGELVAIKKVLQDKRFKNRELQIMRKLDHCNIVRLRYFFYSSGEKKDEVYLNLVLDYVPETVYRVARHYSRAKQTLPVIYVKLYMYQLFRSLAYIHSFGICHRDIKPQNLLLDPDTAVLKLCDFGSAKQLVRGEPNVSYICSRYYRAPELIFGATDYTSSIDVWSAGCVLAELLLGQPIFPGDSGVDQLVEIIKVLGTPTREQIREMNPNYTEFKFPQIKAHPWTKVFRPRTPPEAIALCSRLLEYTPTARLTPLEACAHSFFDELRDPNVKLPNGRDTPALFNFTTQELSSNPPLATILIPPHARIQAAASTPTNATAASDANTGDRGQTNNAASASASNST
Sequence of GSK3α (P49840 whole entry, species assumed): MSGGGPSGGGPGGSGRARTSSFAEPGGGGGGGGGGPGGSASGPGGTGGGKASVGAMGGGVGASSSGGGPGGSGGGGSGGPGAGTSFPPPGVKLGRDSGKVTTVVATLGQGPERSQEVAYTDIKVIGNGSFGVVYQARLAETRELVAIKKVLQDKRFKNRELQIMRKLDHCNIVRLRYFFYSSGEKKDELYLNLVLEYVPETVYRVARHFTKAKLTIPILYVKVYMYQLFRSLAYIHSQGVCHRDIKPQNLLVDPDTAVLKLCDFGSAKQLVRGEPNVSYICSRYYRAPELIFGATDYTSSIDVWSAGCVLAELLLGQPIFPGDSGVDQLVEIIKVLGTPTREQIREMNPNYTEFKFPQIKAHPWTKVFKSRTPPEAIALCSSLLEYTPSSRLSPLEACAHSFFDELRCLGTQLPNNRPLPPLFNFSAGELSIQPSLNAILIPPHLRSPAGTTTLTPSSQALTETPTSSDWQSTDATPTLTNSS

| Structure (SMILES) | IC50 (GSK3β) [nM] | IC50 (pTau) [nM] | IC50 (GSK3α) [nM] |
| --- | --- | --- | --- |
| O=C(Nc1cnc(F)cc1N1CCC(F)(F)CC1)c1ccnc(Nc2ccc(C(F)(F)F)cn2)c1 [Example 71, N-(6-Fluoro-4-(4,4-difluoropiperidin-1-yl)pyridin-3-yl)-2-((5-(trifluoromethyl)pyridin-2-yl)amino)isonicotinamide] | 1.3 | 60 | 0.36 |
| O=C(Nc1cnc(Cl)cc1[S+]([O-])C1CC1)c1ccnc(Nc2ccc(C(F)(F)F)cn2)c1 (stereo not drawn) [Example 180, N-(6-Chloro-4-(cyclopropylsulfinyl)pyridin-3-yl)-2-((5-(trifluoromethyl)pyridin-2-yl)amino)isonicotinamide] | 15 | 790 | 7.6 |
| O=C(Nc1cnccc1-c1ccc(Cl)cc1)c1ccnc(Nc2ccc(C(F)(F)F)cn2)c1 [Example 51, N-(4-(4-Cholorophenyl)pyridin-3-yl)-2-((5-(trifluoromethyl)pyridin-2-yl)amino)isonicotinamide] | 9.9 | 266 | 6.9 |
| CC(C)(C)COc1ccncc1NC(=O)c1ccnc(Nc2ccc(C#N)cn2)c1 [Example 25, 2-((5-Cyanopyridin-2-yl)amino)-N-(4-(neopentyloxy)pyridin-3-yl)isonicotinamide] | 4.3 | 30 | 2 |
| CC(O)c1ccncc1NC(=O)c1ccnc(Nc2ccc(C(F)(F)F)cn2)c1 (stereo not drawn) [Example 34, N-(4-(1-Hydroxyethyl)pyridin-3-yl)-2-((5-(trifluoromethyl)pyridin-2-yl)amino)isonicotinamide] | 3.2 | 37 | 1.4 |
| CCOc1ccncc1NC(=O)c1ccnc(Nc2ccc(C#N)cn2)c1 [Example 16, N-(4-Ethoxypyridin-3-yl)-2-((5-cyanopyridin-2-yl)amino)isonicotinamide] | 1.1 | 12 | 0.62 |
| O=C(Nc1cncc(-c2ccccc2F)c1)c1ccnc(Nc2ccc(N3CCOCC3)cn2)c1 [Example 140, N-(5-(2-Fluorophenyl)pyridin-3-yl)-2-((5-morpholinopyridin-2-yl)amino)isonicotinamide] | 6.7 | 980 | 10 |
| CC1(c2cnncc2NC(=O)c2ccnc(Nc3ccc(C(F)(F)F)cn3)c2)OCCO1 [Example 200, N-(5-(2-Methyl-1,3-dioxolan-2-yl)pyridazin-4-yl)-2-((5-(trifluoromethyl)pyridin-2-yl)amino)isonicotinamide] | 0.62 | 3.2 | 0.39 |
| O=C(Nc1cnccc1-c1ccccc1)c1ccnc(Nc2cccc(F)n2)c1 [Example 7, 2-((6-Fluoropyridin-2-yl)amino)-N-(4-phenylpyridin-3-yl)isonicotinamide] | 8.5 | 249 | 5.9 |
| O=C(Nc1cnccc1[S+]([O-])c1ccccc1)c1ccnc(Nc2ccc(C(F)(F)F)cn2)c1 (stereo not drawn) [Example 177, N-(4-(Phenylsulfinyl)pyridin-3-yl)-2-((5-(trifluoromethyl)pyridin-2-yl)amino)isonicotinamide] | 3.9 | 760 | 1.1 |
| O=C(Nc1cncc(-c2ccccc2F)c1)c1ccnc(Nc2cccc(F)n2)c1 [Example 136, N-(5-(2-Fluorophenyl)pyridin-3-yl)-2-((6-fluoropyridin-2-yl)amino)isonicotinamide] | 11 | 1100 | 2.7 |
| O=C(Nc1cnccc1S(=O)(=O)CC(F)(F)F)c1ccnc(Nc2ccc(C(F)(F)F)cn2)c1 [Example 184, N-(4-((2,2,2-Trifluoroethyl)sulfonyl)pyridin-3-yl)-2-((5-(trifluoromethyl)pyridin-2-yl)amino)isonicotinamide] | 120 | 130 | 4.8 |
| CC(C)(C)[S+]([O-])c1ccncc1NC(=O)c1ccnc(Nc2ccc(C(F)(F)F)cn2)c1 (stereo not drawn) [Example 178, N-(4-(tert-Butylsulfinyl)pyridin-3-yl)-2-((5-(trifluoromethyl)pyridin-2-yl)amino)isonicotinamide] | 0.12 | 13 | 1.2 |
| O=C(Nc1cnc(Cl)cc1C(=O)C1CC1)c1ccnc(Nc2ccc(C(F)(F)F)cn2)c1 [Example 92, N-(6-Chloro-4-(cyclopropanecarbonyl)pyridin-3-yl)-2-((5-(trifluoromethyl)pyridin-2-yl)amino)isonicotinamide] | 8.8 | 1400 | 4 |
| O=C(Nc1cnccc1-c1ccccc1)c1ccnc(Nc2ccc(Cl)cn2)c1 [Example 59, 2-((5-Chloropyridin-2-yl)amino)-N-(4-phenylpyridin-3-yl)isonicotinamide] | 0.9 | 45 | 0.39 |
| CC(C)(C#N)c1ccc(Nc2cc(C(=O)Nc3cnccc3-c3ccccc3)ccn2)nc1 [Example 61, 2-((5-(2-Cyanopropan-2-yl)pyridin-2-yl)amino)-N-(4-phenylpyridin-3-yl)isonicotinamide] | 1.5 | 150 | 0.54 |

From patent publication US9718804B2, “GSK-3 inhibitors” (BRISTOL-MYERS SQUIBB COMPANY, priority 2013, dated 2017)
